From ChEMBL document CHEMBL1139557, “Synthesis and relative bioavailability of meptazinol benzoyl esters as prodrugs” (Bioorg Med Chem Lett, 2005) come the findings set out here.

A short description of data set [1]: (§1) Bioavailability in rat. Type of data set: ADME, organism-based. The note with it: in vivo.
Data set [2] is described as follows: as §1. The data set is classed as ADME, organism-based. The following applies: in vivo. This is another data set of the same source.
A short description of data set [3]: as §1. Type of data set: ADME, organism-based. The following applies: in vivo. The source holds these as a separate data set.
A short description of data set [4]: as §1. The data set is classed as ADME, organism-based. The following applies: in vivo. This is another data set of the same source.
Data set [5] is described as follows: as §1. Type of data set: ADME, organism-based. The note with it: in vivo. This is another data set of the same source.
Data set [6] can be described thus: as §1. The note with it: in vivo. The data set is classed as ADME, organism-based. The source holds these as a separate data set.
Data set [7] deals with Mus musculus. Briefly: Analgesic activity against mice in acetylcholine induced mice writhing test when dosed at 50 umol/kg (ig) administration after 40 min. Type of data set: functional. On the technique in general: Writhing tests count abdominal constrictions after an irritant is injected.
Data set [8] deals with Mus musculus. Description: Analgesic activity in hot plate test when dosed at 100 umol/kg intraperitoneally. Type of data set: functional. (In general: Hot-plate and tail-flick tests time the reaction to a heat stimulus.)
The test system of data set [9] is Mus musculus. Description: Analgesic activity against mice in acetylcholine induced mice writhing test when dosed at 50 umol/kg (ig) administration after 80 min. Type of data set: functional.
For data set [10], the system named is Mus musculus. Briefly: Analgesic activity against mice in hot plate test when dosed at 100 umol/kg intraperitoneally. Type of data set: functional.
A short description of data set [11]: Relative bioavailability in jejunum closed loop study in rats; Mean of 4 exp. Type of data set: ADME, organism-based. The note with it: rat, in vivo, other.
Data set [12] is described as follows: Relative bioavailability in stomach closed loop study in rats; Mean of 4 exp. Type of data set: ADME, organism-based. The following applies: rat, in vivo; read-out: Relative Bioavailability.

With `CCC1(c2cccc(OC(=O)c3c(C)cccc3N)c2)CCCCN(C)C1` (stereo unspecified), the bioavailability was 130% in [1], 136% in data set [4], 120% in data set [5] and 149% in data set [6]. For the same molecule, the F in data set [2] was 174.27%; in [3] it was 167.97%.
Consider `CCC1(c2cccc(OC(=O)c3ccccc3)c2)CCCCN(C)C1` (stereo unspecified), for which the bioavailability worked out at 75.4% in data set [1]; 58.1% in data set [2]; 81.6% in data set [3]; 112% in data set [4]; 53.9% in data set [5]; 133% in data set [6]. The Activity was 2 in data set [7], 4 in data set [8] and 2 in [9].
Regarding `CCC1(c2cccc(OC(=O)c3ccccc3N)c2)CCCCN(C)C1` (stereo unspecified), the bioavailability in data set [1] was 59.8%; in data set [2], 101%; in data set [3], 81.9%; in data set [4] it was 107%; in data set [6] it was 80.4%. In addition, the Activity stood at 1 in data set [7], 3 in data set [10] and 0 in data set [9]. The molecule further gave a F in [5] of 183.64%.
Regarding `CCC1(c2cccc(OC(=O)c3c(C)cccc3N)c2)CCCCN(C)C1.Cl` (stereo unspecified), the “Relative Bioavailability” value in data set [11] is listed as 562.72%. In addition, in data set [12], the bioavailability was 65.4%.
